According to PMC8119466, “A screen of FDA-approved drugs identifies inhibitors of protein tyrosine phosphatase 4A3 (PTP4A3 or PRL-3)” (Scientific Reports, 2021):
Structures can show the parent of a compound that is named as a salt. Where two headings read alike, the source gives them in different places. Non-standard residues stand in square brackets, D forms with d. Residues, ends and D or L forms follow the SMILES beside them. pGlu = O=C1CC[C@@H](C(=O)O)N1; Thz = O=C(O)[C@@H]1CSCN1

Assays:
Format in all cases: biochemical
recombinant PRL-1 = molecular target: T1, recombinant PRL-1 (Homo sapiens, UniProt Q93096); assay: In vitro phosphatase assay (DiFMUP hydrolysis), PRL-1; further: test concentration or dose not given here
T1 construct: 6xHis (N, cleaved yes); made in house; host or cells: E. coli One Shot BL21 Star
T1 sequence (Q93096 1-173): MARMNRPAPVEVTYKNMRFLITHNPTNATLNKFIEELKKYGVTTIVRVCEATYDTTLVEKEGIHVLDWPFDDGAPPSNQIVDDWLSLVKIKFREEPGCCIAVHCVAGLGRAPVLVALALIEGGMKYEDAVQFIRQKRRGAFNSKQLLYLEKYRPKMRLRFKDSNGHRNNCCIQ

recombinant PRL-2 = molecular target: T2, recombinant PRL-2 (Homo sapiens, UniProt Q12974); assay: In vitro phosphatase assay (DiFMUP hydrolysis), PRL-2;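 further: PRL-2 activity read as DiFMUP hydrolysis after 20 min at room temperature with drug, enzyme first pre-reduced at 4 °C for 20 min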
T2 construct: 6xHis (N, cleaved yes); made in house; host or cells: E. coli One Shot BL21 Star
T2 sequence (Q12974 1-167): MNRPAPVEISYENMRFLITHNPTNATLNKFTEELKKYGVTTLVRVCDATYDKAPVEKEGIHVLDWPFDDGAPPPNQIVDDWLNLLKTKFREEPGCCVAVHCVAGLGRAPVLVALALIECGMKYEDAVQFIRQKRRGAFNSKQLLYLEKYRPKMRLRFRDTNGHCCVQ

recombinant PRL-3 = molecular target: T3, recombinant PRL-3 (Homo sapiens, UniProt O75365); assay: In vitro phosphatase assay (DiFMUP hydrolysis), PRL-3; further: test concentration or dose not given here
T3 construct: 6xHis (N, cleaved yes); made in house; host or cells: E. coli One Shot BL21 Star
T3 sequence (O75365 whole entry): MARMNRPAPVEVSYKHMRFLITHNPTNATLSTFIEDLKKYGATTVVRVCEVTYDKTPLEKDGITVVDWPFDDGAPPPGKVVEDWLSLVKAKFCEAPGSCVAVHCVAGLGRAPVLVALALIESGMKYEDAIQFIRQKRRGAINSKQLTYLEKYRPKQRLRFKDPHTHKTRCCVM

[1] = FDA-approved drug screen, compared to DMSO

| Compound | % Phosphatase Activity (compared to DMSO) PRL-1 (recombinant PRL-1; [1]) [%] | % Phosphatase Activity (compared to DMSO) PRL-2 (recombinant PRL-2; [1]) [%] | % Phosphatase Activity (compared to DMSO) PRL-3 (recombinant PRL-3; [1]) [%] | % Phosphatase Activity (compared to DMSO) PRL-1 (recombinant PRL-1) [%] | % Phosphatase Activity (compared to DMSO) PRL-2 (recombinant PRL-2) [%] | % Phosphatase Activity (compared to DMSO) PRL-3 (recombinant PRL-3) [%] |
| --- | --- | --- | --- | --- | --- | --- |
| O=C1CC[C@@H](C(=O)N2CSC[C@H]2C(=O)O)N1 [Pidotimod] ([pGlu]-[Thz]-OH) | 113 | 103 | 83 | – | – | – |
| Cc1ccc(S(=O)(=O)Nc2nc3ccccc3nc2Nc2ccc3nsnc3c2)cc1 [Pilaralisib (XL147)] | 94 | 65 | 98 | – | – | – |
| O=C(NC[C@H](O)CO)c1ccncc1Nc1ccc(I)cc1F [Pimasertib (AS-703026)] | 99 | 92 | 84 | – | – | – |
| CC(C)COc1ccc(CNC(=O)N(Cc2ccc(F)cc2)C2CCN(C)CC2)cc1 [Pimavanserin] | 95 | 88 | 95 | – | – | – |
| CC[C@@H]1/C=C(\C)C[C@H](C)C[C@H](OC)[C@H]2O[C@@](O)(C(=O)C(=O)N3CCCC[C@H]3C(=O)O[C@H](/C(C)=C/[C@@H]3CC[C@H](Cl)[C@H](OC)C3)[C@H](C)[C@@H](O)CC1=O)[C@H](C)C[C@@H]2OC [Pimecrolimus] | 87 | 73 | 101 | – | – | – |
| COc1ccc(-c2nc3ccc(C4=NNC(=O)CC4C)cc3[nH]2)cc1 (stereo not drawn) [Pimobendan] | 122 | 118 | 95 | – | – | – |
| O=c1[nH]c2ccccc2n1C1CCN(CCCC(c2ccc(F)cc2)c2ccc(F)cc2)CC1 [Pimozide] | 91 | 106 | 96 | – | – | – |
| CCc1ccc(CCOc2ccc(CC3SC(=O)NC3=O)cc2)nc1 (stereo not drawn) [Pioglitazone HCl] | 81 | 100 | 86 | – | – | – |
| CCc1ccc(CCOc2ccc(CC3SC(=O)NC3=O)cc2)nc1 (stereo not drawn) [Pioglitazone] | 103 | 105 | 80 | – | – | – |
| CCN1CCN(C(=O)N[C@@H](C(=O)N[C@@H]2C(=O)N3[C@@H]2SC(C)(C)[C@@H]3C(=O)O)c2ccccc2)C(=O)C1=O [Piperacillin Sodium] | 86 | 91 | 73 | – | – | – |
| C1CNCCN1 [Piperazine] | – | – | – | 95 | 112 | 71 |
| O=C(/C=C/C=C/c1ccc2c(c1)OCO2)N1CCCCC1 [Piperine] | 125 | 119 | 106 | – | – | – |
| NC(=O)CN1CCCC1=O [Piracetam] | 98 | 96 | 83 | – | – | – |
| Cc1ccc(=O)n(-c2ccccc2)c1 [Pirfenidone] | 114 | 137 | 97 | – | – | – |
| CCn1cc(C(=O)O)c(=O)c2cnc(N3CCCC3)nc21 [Piromidic Acid] | 105 | 106 | 96 | – | – | – |
| CN1C(C(=O)Nc2ccccn2)=C(O)c2ccccc2S1(=O)=O [Piroxicam] | 88 | 76 | 70 | – | – | – |
| O=C(O)C[C@H](O)C[C@H](O)/C=C/c1c(C2CC2)nc2ccccc2c1-c1ccc(F)cc1 [Pitavastatin Calcium] | 82 | 88 | 92 | – | – | – |
| CN1CCC(=C2c3ccccc3CCc3sccc32)CC1.O=C(O)CC(O)C(=O)O [Pizotifen Malate] | 114 | 109 | 95 | – | – | – |
| Nc1cccc2c1C(=O)N(C1CCC(=O)NC1=O)C2=O (stereo not drawn) [Pomalidomide] | 264 | 248 | 204 | – | – | – |
| Cc1ccc(C(=O)Nc2ccc(CN3CCN(C)CC3)c(C(F)(F)F)c2)cc1C#Cc1cnc2cccnn12 [Ponatinib (AP24534)] | 396 | 417 | 319 | – | – | – |
| CCC/N=C1\S/C(=C\c2ccc(OC[C@H](O)CO)c(Cl)c2)C(=O)N1c1ccccc1C [Ponesimod] | 88 | 79 | 86 | – | – | – |
| CC[C@@H]([C@H](C)O)n1ncn(-c2ccc(N3CCN(c4ccc(OC[C@@H]5CO[C@@](Cn6cncn6)(c6ccc(F)cc6F)C5)cc4)CC3)cc2)c1=O [Posaconazole] | 89 | 99 | 73 | – | – | – |
| [I-].[K+] [Potassium Iodide] | 94 | 91 | 87 | – | – | – |
| C=CC(=O)N1CCC(Oc2cc3c(Nc4ccc(Cl)c(Cl)c4F)ncnc3cc2OC)CC1 [Poziotinib (HM781-36B)] | 96 | 80 | 106 | – | – | – |
| CCCCc1nc2cc(/C=C/C(=O)NO)ccc2n1CCN(CC)CC [Pracinostat (SB939)] | 96 | 87 | 80 | – | – | – |
| C#CCC(Cc1cnc2nc(N)nc(N)c2n1)c1ccc(C(=O)N[C@@H](CCC(=O)O)C(=O)O)cc1 (stereo partly drawn) [Pralatrexate] | 1180 | 1210 | 875 | – | – | – |
